Experimental data published in ChEMBL document CHEMBL4038347, “Converting Teixobactin into a Cationic Antimicrobial Peptide (AMP)” (2017).
Values after ≈ are worked out from the molar mass of the structure shown. Active and inactive are the calls of the source. No cut-off for these calls is given here. Where a SMILES comes first, the peptide text is derived from it. Bridges are numbered along the chain shown (N, C = ends). [ ]: non-standard residue; d: D form. d(aIle) = CC[C@H](C)[C@@H](N)C(=O)O; dNMeF = CN[C@H](Cc1ccccc1)C(=O)O; Orn = NCCC[C@H](N)C(=O)O

Tests used:
Type in all cases: functional
[1] = tested on: Staphylococcus aureus; experiment: Antibacterial activity against Staphylococcus aureus ATCC 29213 after 24 hrs by broth microdilution method
[2] = tested on: Bacillus subtilis; experiment: Antibacterial activity against Bacillus subtilis ATCC 6051 after 24 hrs by broth microdilution method
[3] = tested on: Escherichia coli; experiment: Antibacterial activity against Escherichia coli ATCC 25922 after 24 hrs by broth microdilution method
[4] = tested on: Pseudomonas aeruginosa; experiment: Antibacterial activity against Pseudomonas aeruginosa ATCC 27853 after 24 hrs by broth microdilution method

Row | MIC ([1]; ATCC 29213, 24 h) [µg/mL] | MIC ([2]; ATCC 6051, 24 h) [µg/mL] | MIC ([3]; ATCC 25922, 24 h) [µg/mL] | MIC ([4]; ATCC 27853, 24 h) [µg/mL] | MIC [1] | MIC [2] | MIC [3] | MIC [4] | SMILES
1 | 8 (≈ 6.36 µM) | 1 (≈ 0.795 µM) | 32 (≈ 25.4 µM) | 32 (≈ 25.4 µM) |  |  |  |  | CC[C@H](C)[C@H](NC(=O)[C@@H](Cc1ccccc1)NC)C(=O)N[C@@H](CCCCN)C(=O)N[C@H](CCCCN)C(=O)N[C@@H](C(=O)N[C@H](C(=O)N[C@@H](CO)C(=O)N[C@H]1C(=O)N[C@@H](C)C(=O)N[C@@H](CCCCN)C(=O)N[C@@H]([C@@H](C)CC)C(=O)O[C@H]1C)[C@@H](C)CC)[C@@H](C)CC (H-[dNMeF]IK[dK][d(aIle)]IS[dT]AKI; ester 8-C)
2 |  |  |  |  | inactive | inactive | inactive | inactive | CC[C@H](C)[C@H](NC(=O)[C@@H](Cc1ccccc1)NC)C(=O)N[C@@H](CO)C(=O)N[C@H](CCC(N)=O)C(=O)N[C@@H](C(=O)N[C@H](C(=O)N[C@@H](CO)C(=O)N[C@H]1C(=O)N[C@@H](C)C(=O)N2C[C@@H](N)C[C@H]2C(=O)N[C@@H]([C@@H](C)CC)C(=O)O[C@H]1C)[C@@H](C)CC)[C@@H](C)CC
3 | 64 (≈ 48.2 µM) | 4 (≈ 3.01 µM) |  |  |  |  | inactive | inactive | CC[C@H](C)[C@H](NC(=O)[C@@H](Cc1ccccc1)NC)C(=O)N[C@@H](CO)C(=O)N[C@H](CCC(N)=O)C(=O)N[C@@H](C(=O)N[C@H](C(=O)N[C@@H](CO)C(=O)N[C@H]1C(=O)N[C@@H](C)C(=O)N[C@@H](CC/N=C(\N(C)C)N2CCOCC2)C(=O)N[C@@H]([C@@H](C)CC)C(=O)O[C@H]1C)[C@@H](C)CC)[C@@H](C)CC
4 | 128 (≈ 103 µM) | 16 (≈ 12.9 µM) | 512 (≈ 412 µM) | 512 (≈ 412 µM) |  |  |  |  | CC[C@H](C)[C@H](NC(=O)[C@@H](Cc1ccccc1)NC)C(=O)N[C@@H](CO)C(=O)N[C@H](CCC(N)=O)C(=O)N[C@@H](C(=O)N[C@H](C(=O)N[C@@H](CCCCN)C(=O)N[C@H]1C(=O)N[C@@H](C)C(=O)N[C@@H](CCCN)C(=O)N[C@@H]([C@@H](C)CC)C(=O)O[C@H]1C)[C@@H](C)CC)[C@@H](C)CC
5 | 32 (≈ 24.1 µM) | 4 (≈ 3.01 µM) | 32 (≈ 24.1 µM) | 32 (≈ 24.1 µM) |  |  |  |  | CC[C@H](C)[C@H](NC(=O)[C@@H](Cc1ccccc1)NC)C(=O)N[C@@H](CCCCN)C(=O)N[C@H](CCCCN)C(=O)N[C@@H](C(=O)N[C@H](C(=O)N[C@@H](CCCCN)C(=O)N[C@H]1C(=O)N[C@@H](C)C(=O)N[C@@H](CCCNC(=N)N)C(=O)N[C@@H]([C@@H](C)CC)C(=O)O[C@H]1C)[C@@H](C)CC)[C@@H](C)CC
6 | 4 (≈ 3.25 µM) | 4 (≈ 3.25 µM) | 64 (≈ 52 µM) | 64 (≈ 52 µM) |  |  |  |  | CC[C@H](C)[C@H](NC(=O)[C@@H](Cc1ccccc1)NC)C(=O)N[C@@H](CN)C(=O)N[C@H](CCC(N)=O)C(=O)N[C@@H](C(=O)N[C@H](C(=O)N[C@@H](CO)C(=O)N[C@H]1C(=O)N[C@@H](CN)C(=O)N[C@@H](CCCCN)C(=O)N[C@@H]([C@@H](C)CC)C(=O)O[C@H]1C)[C@@H](C)CC)[C@@H](C)CC
7 | 2 (≈ 1.66 µM) | 2 (≈ 1.66 µM) | 64 (≈ 53.2 µM) | 256 (≈ 213 µM) |  |  |  |  | CC[C@H](C)[C@H](NC(=O)[C@@H](Cc1ccccc1)NC)C(=O)N[C@@H](CO)C(=O)N[C@H](CCCCN)C(=O)N[C@@H](C(=O)N[C@H](C(=O)N[C@@H](CO)C(=O)N[C@H]1C(=O)N[C@@H](C)C(=O)N[C@@H](CCCN)C(=O)N[C@@H]([C@@H](C)CC)C(=O)O[C@H]1C)[C@@H](C)CC)[C@@H](C)CC
8 |  |  |  |  | inactive | inactive | inactive | inactive | CC[C@H](C)[C@H](NC(=O)[C@@H](CCCCN)NC)C(=O)N[C@@H](CO)C(=O)N[C@H](CCC(N)=O)C(=O)N[C@@H](C(=O)N[C@H](C(=O)N[C@@H](CO)C(=O)N[C@H]1C(=O)N[C@@H](C)C(=O)N[C@@H](CCCNC(=N)N)C(=O)N[C@@H]([C@@H](C)CC)C(=O)O[C@H]1C)[C@@H](C)CC)[C@@H](C)CC
9 | 4 (≈ 3.14 µM) | 1 (≈ 0.785 µM) | 32 (≈ 25.1 µM) | 64 (≈ 50.3 µM) |  |  |  |  | CC[C@H](C)[C@H](NC(=O)[C@@H](Cc1ccccc1)NC)C(=O)N[C@@H](CO)C(=O)N[C@H](CCCCN)C(=O)N[C@@H](C(=O)N[C@H](C(=O)N[C@@H](CO)C(=O)N[C@H]1C(=O)N[C@@H](CCCCN)C(=O)N[C@@H](CCCCN)C(=O)N[C@@H]([C@@H](C)CC)C(=O)O[C@H]1C)[C@@H](C)CC)[C@@H](C)CC (H-[dNMeF]IS[dK][d(aIle)]IS[dT]KKI; ester 8-C)
10 | 2 (≈ 1.59 µM) | 0.5 (≈ 0.397 µM) | 32 (≈ 25.4 µM) | 64 (≈ 50.8 µM) |  |  |  |  | CC[C@H](C)[C@H](NC(=O)[C@@H](Cc1ccccc1)NC)C(=O)N[C@@H](CO)C(=O)N[C@H](CCC(N)=O)C(=O)N[C@@H](C(=O)N[C@H](C(=O)N[C@@H](CO)C(=O)N[C@H]1C(=O)N[C@@H](CCCCN)C(=O)N[C@@H](CCCN)C(=O)N[C@@H]([C@@H](C)CC)C(=O)O[C@H]1C)[C@@H](C)CC)[C@@H](C)CC
11 |  | 32 (≈ 24.9 µM) |  |  | inactive |  | inactive | inactive | CC[C@H](C)[C@H](NC(=O)[C@@H](Cc1ccccc1)NC)C(=O)N[C@@H](CCCCN)C(=O)N[C@H](CCC(N)=O)C(=O)N[C@@H](C(=O)N[C@H](C(=O)N[C@@H](CCCCN)C(=O)N[C@H]1C(=O)N[C@@H](C)C(=O)N[C@@H](CCCN)C(=O)N[C@@H]([C@@H](C)CC)C(=O)O[C@H]1C)[C@@H](C)CC)[C@@H](C)CC (stereo in doubt)
12 | 256 (≈ 199 µM) | 16 (≈ 12.5 µM) | 32 (≈ 24.9 µM) | 64 (≈ 49.8 µM) |  |  |  |  | CC[C@H](C)[C@H](NC(=O)[C@@H](Cc1ccccc1)NC)C(=O)N[C@@H](CCCCN)C(=O)N[C@H](CCCCN)C(=O)N[C@@H](C(=O)N[C@H](C(=O)N[C@@H](CCCCN)C(=O)N[C@H]1C(=O)N[C@@H](C)C(=O)N[C@@H](CCCN)C(=O)N[C@@H]([C@@H](C)CC)C(=O)O[C@H]1C)[C@@H](C)CC)[C@@H](C)CC (H-[dNMeF]IK[dK][d(aIle)]IK[dT]A[Orn]I; ester 8-C)
13 | 2 (≈ 1.61 µM) | 2 (≈ 1.61 µM) | 64 (≈ 51.5 µM) | 256 (≈ 206 µM) |  |  |  |  | CC[C@H](C)[C@H](NC(=O)[C@@H](Cc1ccccc1)NC)C(=O)N[C@@H](CCCCN)C(=O)N[C@H](CCC(N)=O)C(=O)N[C@@H](C(=O)N[C@H](C(=O)N[C@@H](CO)C(=O)N[C@H]1C(=O)N[C@@H](C)C(=O)N[C@@H](CCCN)C(=O)N[C@@H]([C@@H](C)CC)C(=O)O[C@H]1C)[C@@H](C)CC)[C@@H](C)CC
14 | 32 (≈ 24.3 µM) | 8 (≈ 6.08 µM) | 32 (≈ 24.3 µM) | 64 (≈ 48.7 µM) |  |  |  |  | CC[C@H](C)[C@H](NC(=O)[C@@H](Cc1ccccc1)NC)C(=O)N[C@@H](CCCCN)C(=O)N[C@H](CCCCN)C(=O)N[C@@H](C(=O)N[C@H](C(=O)N[C@@H](CO)C(=O)N[C@H]1C(=O)N[C@@H](CCCCN)C(=O)N[C@@H](CCCCN)C(=O)N[C@@H]([C@@H](C)CC)C(=O)O[C@H]1C)[C@@H](C)CC)[C@@H](C)CC

Row | SMILES | MIC ([1]; ATCC 29213, 24 h) [µg/mL] | MIC ([2]; ATCC 6051, 24 h) [µg/mL] | MIC ([3]; ATCC 25922, 24 h) [µg/mL] | MIC ([4]; ATCC 27853, 24 h) [µg/mL] | MIC [1] | MIC [2] | MIC [3] | MIC [4]
15 | CC[C@H](C)[C@H](NC(=O)[C@@H](Cc1ccccc1)NC)C(=O)N[C@@H](CO)C(=O)N[C@H](CCC(N)=O)C(=O)N[C@@H](C(=O)N[C@H](C(=O)N[C@@H](CO)C(=O)N[C@H]1C(=O)N[C@@H](C)C(=O)N[C@@H](CCCN)C(=O)N[C@@H]([C@@H](C)CC)C(=O)O[C@H]1C)[C@@H](C)CC)[C@@H](C)CC | 2 (≈ 1.66 µM) | 0.25 (≈ 0.208 µM) | 32 (≈ 26.6 µM) | 256 (≈ 213 µM) |  |  |  | 
